The record followed here is PMC11217349, “Development of Nurr1 agonists from amodiaquine by scaffold hopping and fragment growing” (Communications Chemistry, 2024).

The target of data set [1] is T1, human Nurr1 (hinge region and ligand binding domain) (Homo sapiens, UniProt P43354).
T1 construct: expressed in transfected cells; host or cells: HEK293T
Briefly: Gal4-Nurr1 hybrid reporter gene assay. Type of data set: cell-based. The conditions noted are these: for max. activation: maximum effect vs. 0.1% DMSO control; for highest non-toxic concentration: Gal4-Nurr1 hybrid reporter gene assay. The procedure:
Nurr1 modulation was determined in a Gal4 hybrid reporter gene assay in HEK293T cells (German Collection of Microorganisms and Cell Culture GmbH, DSMZ) using pFR-Luc (Stratagene, La Jolla, CA, USA; reporter), pRL-SV40 (Promega, Madison, WI, USA; internal control) and pFA-CMV-hNurr1-LBD[14], coding for the hinge region and ligand binding domain of the canonical isoform of human Nurr1. […] After 24 h, the medium was changed to Opti-MEM without supplements, and cells were transiently transfected using Lipofectamine LTX reagent (Invitrogen, Carlsbad, CA, USA) according to the manufacturer’s protocol. Five hours after transfection, cells were incubated with the test compounds in Opti-MEM supplemented with penicillin (100 U/mL), streptomycin (100 μg/mL), and 0.1% DMSO for 16 h before luciferase activity was measured using the Dual-Glo Luciferase Assay System (Promega) according to the manufacturer’s protocol on a Tecan Spark luminometer (Tecan Deutschland GmbH, Crailsheim, Germany). Firefly luminescence was divided by Renilla luminescence and multiplied by 1000 resulting in relative light units (RLU) to normalize for transfection efficiency and cell growth. Fold activation was obtained by dividing the mean RLU of the test compound by the mean RLU of the untreated control. All samples were tested in at least three biologically independent experiments in duplicates. For dose-response curve fitting and calculation of EC50 values, the equation “[Agonist] vs. response -- Variable slope (four parameters)” was used in GraphPad Prism (version 7.00, GraphPad Software, La Jolla, CA, USA). Selectivity profiling was performed with identical procedures using pFA-CMV-Nur77-LBD[14], pFA-CMV-NOR-1-LBD[14], pFA-CMV-THRα-LBD[51], pFA-CMV-RARα-LBD[52], pFA-CMV-PPARα-LBD[53], pFA-CMV-PPARγ-LBD[53], pFA-CMV-PPARδ-LBD[53], pFA-CMV-LXRα-LBD[54], pFA-CMV-FXR-LBD[55] and pFA-CMV-hRXRα-LBD[56].
Background: In a reporter assay the amount or activity of a reporter protein is the signal.

In data set [2] the target is T2, Nurr1 LBD (Homo sapiens, UniProt P43354).
T2 construct: Nurr1 LBD protein (5–30 µM, expressed as described previously[21]); made in house
T2 sequence (P43354 360-595 limits assumed): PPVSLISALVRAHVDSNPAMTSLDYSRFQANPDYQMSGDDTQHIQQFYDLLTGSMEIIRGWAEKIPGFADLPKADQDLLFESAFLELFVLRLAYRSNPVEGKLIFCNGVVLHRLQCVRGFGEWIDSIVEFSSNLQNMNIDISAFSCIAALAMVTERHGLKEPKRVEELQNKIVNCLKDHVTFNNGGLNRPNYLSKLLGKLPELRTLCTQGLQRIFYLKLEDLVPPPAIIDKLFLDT
Briefly: Isothermal titration calorimetry (ITC). Type of data set: binding. The conditions noted are these: 25 °C. Here is the method:
ITC experiments were conducted on an Affinity ITC instrument (TA Instruments, New Castle, DE) at 25 °C with a stirring rate of 75 rpm. Nurr1 LBD protein (5–30 µM, expressed as described previously[21]) in buffer (20 mM Tris pH 7.5, 100 mM NaCl, 5% glycerol) containing 1–4% DMSO was titrated with the test compounds (30–150 μM in the same buffer containing 1-4% DMSO) in 26 injections (1 × 1 µL, 25 × 3-4 μL) with an injection interval of 120-150 s. As control experiments, the test compounds were titrated to the buffer, and the buffer was titrated to the Nurr1 LBD protein under otherwise identical conditions. Results were analyzed using NanoAnalyze software (version 3.11.0, TA Instruments, New Castle, DE) with independent binding models.
Background: In ITC the heat of successive injections is recorded.

Data set [3] is described as follows: Microsomal stability. It is filed as in vitro ADME, rat. The conditions noted are these: incubation of 36 with rat liver microsomes, listed as 36-NH2. Here is the method:
To determine microsomal stability, test compounds (10 μM) were incubated in 100 mM potassium phosphate buffer at pH 7.4 (total volume of 100 µL) containing 0.5 mg/mL male rat liver microsomes (Sprague-Dawley, no. M9066, Merck KGaA, Darmstadt) and 1 mM NADPH for 0, 15, 30, or 60 min. At the end of the incubation time, microsomal activity was terminated by the addition of 500 µL MeCN and subsequent centrifugation at 1700 g for 5 min. A reaction mixture containing heat-inactivated microsomes (95 °C, 10 min) was prepared as a control for each compound. 5 µL supernatant of each sample was analyzed and the remaining concentrations of the respective test compounds at each time point were determined by LC-MS/MS on an API-3200-QTrap (Sciex) with an Agilent Technologies 1100 series setup including a binary pump (G1311A), a degasser (G1322A), and a Shimadzu SIL 20 A HT autosampler under the control of Analyst 1.6 (Sciex). A XBridge BEH C18 (3.5 µm, 150 mm×3 mm, Waters, protected with a 0.5 µm frit) stationary phase was used in combination with a gradient method starting with 0.1% formic acid in water (A) and MeCN (B) as mobile phase (A:B = 80:20) for 6 min going to A: B = 50:50 after 8 min. 5 µL of supernatant diluted in mobile phase starting conditions was loaded onto the column, separated at a flow rate of 400 µL/min, and detected and quantified per Area of MRM (multiple reaction monitoring) with the following transitions: m/z 381.797/145.000 (34); m/z 395.125/158.200 (36); m/z 409.822/131.000 (41); m/z 407.838/171.100 (42).
A general note: Microsomes from liver hold many membrane-bound enzymes, among them those of drug oxidation.

The mark [4] stands for this setting: Table 2, Nurr1 agonism, read-out: pEC50 (converted).
Where [5] appears, read: Gal4-Nurr1 hybrid reporter, HEK293T, mean ± SD, n ≥ 3.
The mark [6] stands for this setting: Gal4-Nurr1 hybrid reporter, HEK293T, mean ± SD, n ≥ 3, read-out: EC50(Nurr1).

“And” between values parts separate entries of the source, which are not always exact repeats. Equal entries are not always repeated. Where two headings read alike, the source gives them in different places.

T1 sequence (P43354 360-595 limits assumed): as above

Regarding `CCN1CCN(c2cc(N3CCN(CC)CC3)nc(NCCNc3ccnc4cc(Cl)ccc34)n2)CC1` [Compound 1, reference compound], the EC50 in data set [1] (setting [4]) is 20 µM.

Compound `Cc1cc(N)c2cccc(Cl)c2n1` [Compound 3, 8-chloro-2-methylquinolin-4-amine, reference compound] displayed a max. activation in data set [1] (mean ± SD, n ≥ 3) of 1.7 ± 0.1 fold.

For the compound `O=C(Nc1ccnc2cc(Cl)ccc12)c1ccc(-c2ccc(Cl)cc2)o1` [Compound 4, reference compound], the EC50 in data set [1] (setting [4]) was 15.8 µM.

With `Cc1[nH]c2c(Cl)cccc2c1N` [Compound 6, 7-chloro-2-methyl-1H-indol-3-amine], the “EC50(Nurr1)” value in data set [1] (setting [5]) is given as “unstable”.

Take `Cc1nc2cccc(Cl)c2[nH]1` [Compound 7, 4-Chloro-2-methyl-benzimidazole]: the “EC50(Nurr1)” value in data set [1] (setting [5]) was “inactive (100 µM)”.

On to `Cc1nc2c(Cl)cccn2c1N` [Compound 8, 8-Chloro-2-methylimidazo[1,2-a]pyridine-3-amine], for which the EC50 in data set [1] (setting [6]) came out at 7 ± 1 µM. In data set [1] (mean ± SD, n ≥ 3), this compound registered a max. activation of 2.0 ± 0.1 fold. Moreover, binding in data set [2] was put at a Kd of 2700 nM.

On to `Cc1nc2cc(Cl)ccn2c1N` [Compound 9], for which the “EC50(Nurr1)” value in data set [1] (setting [5]) was “inactive (100 µM)”. In data set [2], the “Kd (Nurr1 LBD)” value was “weak binding”.

As to `Nc1cnc2c(Cl)cccn12` [Compound 12, 3-Amino-8-chloroimidazo[1,2-a]pyridine], in data set [2], binding was put at a Kd of 5100 nM.

Consider `CC(C)c1nc2c(Cl)cccn2c1N` [Compound 14], for which the max. activation in data set [1] (mean ± SD, n ≥ 3) is < 1.2-fold act.

As for `Nc1c(-c2ccccc2)nc2c(Cl)cccn12` [Compound 15], in data set [1] (setting [6]), the EC50 was 4 ± 2 µM. In data set [1] (mean ± SD, n ≥ 3), this compound displayed a max. activation of 1.4 ± 0.1 fold.

`Nc1c(-c2ccco2)nc2c(Cl)cccn12` [Compound 16]: the max. activation in data set [1] (mean ± SD, n ≥ 3) is on record as < 1.2-fold act.

Turning to `Nc1c(-c2ccc(Cl)cc2)nc2c(Cl)cccn12` [Compound 17], the EC50 in data set [1] (setting [6]) is 15 ± 3 µM. The max. activation in data set [1] (mean ± SD, n ≥ 3) is recorded as 1.7 ± 0.2 fold.

Take `Nc1c(-c2cccc(Cl)c2)nc2c(Cl)cccn12` [Compound 18]: the EC50 in data set [1] (setting [6]) worked out at 9 ± 3 µM. The compound further came in with a max. activation in data set [1] (mean ± SD, n ≥ 3) of 1.7 ± 0.1 fold.

Regarding `Nc1c(-c2ccccc2Cl)nc2c(Cl)cccn12` [Compound 19], the “EC50(Nurr1)” value in data set [1] (setting [5]) was “inactive (100 µM)”.

Consider `Cc1ccc(-c2nc3c(Cl)cccn3c2N)cc1` [Compound 20], for which, in data set [1] (setting [6]), the EC50 worked out at 12 ± 2 µM. Also, the max. activation in data set [1] (mean ± SD, n ≥ 3) is given as 2.0 ± 0.2 fold.

`Cc1cccc(-c2nc3c(Cl)cccn3c2N)c1` [Compound 21]: the max. activation in data set [1] (mean ± SD, n ≥ 3) is < 1.2-fold act.

For the compound `Nc1c(-c2ccc(C(F)(F)F)cc2)nc2c(Cl)cccn12` [Compound 22], the max. activation in data set [1] (mean ± SD, n ≥ 3) is on record as < 1.2-fold act.

Regarding `Nc1c(-c2cccc(C(F)(F)F)c2)nc2c(Cl)cccn12` [Compound 23], the max. activation in data set [1] (mean ± SD, n ≥ 3) is on record as < 1.2-fold act.

For `Nc1c(-c2ccc(Cl)c(Cl)c2)nc2c(Cl)cccn12` [Compound 24, 8-Chloro-2-(3,4-dichlorophenyl)imidazo[1,2-a]pyridine-3-amine], the EC50 in data set [1] (setting [4]) is 0.398 µM. The max. activation in data set [1] (mean ± SD, n ≥ 3) is 1.8 fold and 1.8±0.1 fold. Also, the Kd (commonly the free concentration of one partner at which half of the binding sites on the other are occupied at equilibrium, for simple one-to-one binding) in data set [2] was 700 nM.

`Cc1ccc(-c2nc3c(Cl)cccn3c2N)cc1C` [Compound 25]: the EC50 in data set [1] (setting [6]) worked out at 14 ± 2 µM. The max. activation in data set [1] (mean ± SD, n ≥ 3) was found to be 1.6 ± 0.1 fold.

In the case of `Cc1nc2c(Cl)cccn2c1NC(=O)c1ccc(-c2ccc(Cl)cc2)o1` [Compound 26], the EC50 in data set [1] (setting [6]) is 1.6 ± 0.5 µM. In data set [1] (mean ± SD, n ≥ 3), this compound yielded a max. activation of 1.8 ± 0.1 fold. For the same compound, in data set [2], binding was characterised by a dissociation constant (Kd) of 700 nM.

With `Cc1nc2c(Cl)cccn2c1NC(=O)c1ccc(-c2ccccc2)o1` [Compound 27], the EC50 in data set [1] (setting [6]) was determined as 4 ± 1 µM. Further, the max. activation in data set [1] (mean ± SD, n ≥ 3) amounted to 2.1 ± 0.1 fold.

Regarding `Cc1nc2c(Cl)cccn2c1NC(=O)c1ccc(-c2ccccc2)s1` [Compound 28], the EC50 in data set [1] (setting [6]) worked out at 3.2 ± 0.4 µM. Also, the max. activation in data set [1] (mean ± SD, n ≥ 3) is given as 2.1 ± 0.1 fold.

Take `Cc1nc2c(Cl)cccn2c1NC(=O)c1ccc(-c2ccccc2)cc1` [Compound 30]: the highest non-toxic concentration result in data set [1] (HEK293T) was “inactive (10 µM^b)”. Moreover, the “EC50(Nurr1)” value in data set [1] (setting [5]) was “inactive (10 µM^b)”.

With `Cc1nc2c(Cl)cccn2c1NC(=O)c1ccc(-c2ccc(C(F)(F)F)cc2)o1` [Compound 31], the EC50 in data set [1] (setting [6]) was found to be 1.1 ± 0.3 µM. For the same compound, the max. activation in data set [1] (mean ± SD, n ≥ 3) came to 1.8 ± 0.1 fold.

Regarding `Cc1ccc(-c2ccc(C(=O)Nc3c(C)nc4c(Cl)cccn34)o2)cc1` [Compound 32], the EC50 in data set [1] (setting [6]) was found to be 0.13 ± 0.02 µM. In data set [1] (mean ± SD, n ≥ 3), this compound came in with a max. activation of 2.0 ± 0.2 fold.

`Cc1nc2c(Cl)cccn2c1NC(=O)c1ccc(-c2ccc(OC(F)(F)F)cc2)o1` [Compound 33]: the EC50 in data set [1] (setting [6]) is 0.8 ± 0.2 µM. The compound also registered a max. activation in data set [1] (mean ± SD, n ≥ 3) of 2.0 ± 0.1 fold.

For the compound `CNc1ccc(-c2ccc(C(=O)Nc3c(C)nc4c(Cl)cccn34)o2)cc1` [Compound 35], the EC50 in data set [1] (setting [6]) was 0.3 ± 0.02 µM. In data set [1] (mean ± SD, n ≥ 3), this compound came in with a max. activation of 1.8 ± 0.1 fold.

Take `CN(C)c1ccc(-c2ccc(C(=O)Nc3c(-c4ccc(Cl)c(Cl)c4)nc4c(Cl)cccn34)o2)cc1` [Compound 37, N-(8-Chloro-2-(3,4-dichlorophenyl)imidazo[1,2-a]pyridin-3-yl)-5-(4-(dimethylamino)phenyl)furan-2-carboxamidearboxamide]: in data set [1] (setting [6]), the EC50 was 0.04 ± 0.01 µM. The max. activation in data set [1] (mean ± SD, n ≥ 3) is 1.53±0.04 fold. The compound also came in with a Kd in data set [2] of 80 nM.

On to `Cc1nc2c(Cl)cccn2c1NC(=O)c1ccc(-c2ccc(N)cc2)o1` [Compound 38], for which the max. activation in data set [1] (mean ± SD, n ≥ 3) is recorded as <1.2-fold activation. The “AUC x10^5 (LC-MS peak area of 36 and its demethylated metabolites)” value in data set [3] (time 0 min) is 0.0604 x10^5 and 0.0553 x10^5 and 0.0561 x10^5 and 0.0573 x10^5; in data set [3] (time 15 min), 1.99 x10^5 and 2.08 x10^5 and 1.81 x10^5 and 1.95 x10^5; in data set [3] (time 60 min), 4.34 x10^5 and 4.54 x10^5 and 4 x10^5 and 5.57 x10^5.

As to `Cc1nc2c(Cl)cccn2c1NC(=O)c1ccc(-c2ccc(N3CCOCC3)cc2)o1` [Compound 39], the highest non-toxic concentration result in data set [1] (HEK293T) is “inactive (10 µM^c)”. Also, the “EC50(Nurr1)” value in data set [1] (setting [5]) is “inactive (10 µM^c)”.

With `Cc1nc2c(Cl)cccn2c1NC(=O)c1ccc(-c2ccc(N3CCN(C)CC3)cc2)o1` [Compound 40], the highest non-toxic concentration entry in data set [1] (HEK293T) is “inactive (10 µM^d)”. Moreover, in data set [1] (setting [5]), the “EC50(Nurr1)” value was “inactive (10 µM^d)”.
